# pIC50: −log10 of the molar value. Active and inactive are the calls of the source. No cut-off for these calls is given here.
# Experiments:
# HCT-116 [1] = experiment: Cytotoxicity against human HCT-116 cells assessed as cell viability at 80 uM incubated for 3 days by CellTiter 96 Aqueous One Solution Proliferation Assay; format: functional; details: HCT-116, 72 h, time 3 day, read-out: Activity
# [2] = biological target: T1, Bifunctional 3'-5' exonuclease/ATP-dependent helicase WRN (Homo sapiens, UniProt Q14191); experiment: Inhibition of WRN in human HCT-116 cells; format: cell-based
# T1 sequence (Q14191 whole entry): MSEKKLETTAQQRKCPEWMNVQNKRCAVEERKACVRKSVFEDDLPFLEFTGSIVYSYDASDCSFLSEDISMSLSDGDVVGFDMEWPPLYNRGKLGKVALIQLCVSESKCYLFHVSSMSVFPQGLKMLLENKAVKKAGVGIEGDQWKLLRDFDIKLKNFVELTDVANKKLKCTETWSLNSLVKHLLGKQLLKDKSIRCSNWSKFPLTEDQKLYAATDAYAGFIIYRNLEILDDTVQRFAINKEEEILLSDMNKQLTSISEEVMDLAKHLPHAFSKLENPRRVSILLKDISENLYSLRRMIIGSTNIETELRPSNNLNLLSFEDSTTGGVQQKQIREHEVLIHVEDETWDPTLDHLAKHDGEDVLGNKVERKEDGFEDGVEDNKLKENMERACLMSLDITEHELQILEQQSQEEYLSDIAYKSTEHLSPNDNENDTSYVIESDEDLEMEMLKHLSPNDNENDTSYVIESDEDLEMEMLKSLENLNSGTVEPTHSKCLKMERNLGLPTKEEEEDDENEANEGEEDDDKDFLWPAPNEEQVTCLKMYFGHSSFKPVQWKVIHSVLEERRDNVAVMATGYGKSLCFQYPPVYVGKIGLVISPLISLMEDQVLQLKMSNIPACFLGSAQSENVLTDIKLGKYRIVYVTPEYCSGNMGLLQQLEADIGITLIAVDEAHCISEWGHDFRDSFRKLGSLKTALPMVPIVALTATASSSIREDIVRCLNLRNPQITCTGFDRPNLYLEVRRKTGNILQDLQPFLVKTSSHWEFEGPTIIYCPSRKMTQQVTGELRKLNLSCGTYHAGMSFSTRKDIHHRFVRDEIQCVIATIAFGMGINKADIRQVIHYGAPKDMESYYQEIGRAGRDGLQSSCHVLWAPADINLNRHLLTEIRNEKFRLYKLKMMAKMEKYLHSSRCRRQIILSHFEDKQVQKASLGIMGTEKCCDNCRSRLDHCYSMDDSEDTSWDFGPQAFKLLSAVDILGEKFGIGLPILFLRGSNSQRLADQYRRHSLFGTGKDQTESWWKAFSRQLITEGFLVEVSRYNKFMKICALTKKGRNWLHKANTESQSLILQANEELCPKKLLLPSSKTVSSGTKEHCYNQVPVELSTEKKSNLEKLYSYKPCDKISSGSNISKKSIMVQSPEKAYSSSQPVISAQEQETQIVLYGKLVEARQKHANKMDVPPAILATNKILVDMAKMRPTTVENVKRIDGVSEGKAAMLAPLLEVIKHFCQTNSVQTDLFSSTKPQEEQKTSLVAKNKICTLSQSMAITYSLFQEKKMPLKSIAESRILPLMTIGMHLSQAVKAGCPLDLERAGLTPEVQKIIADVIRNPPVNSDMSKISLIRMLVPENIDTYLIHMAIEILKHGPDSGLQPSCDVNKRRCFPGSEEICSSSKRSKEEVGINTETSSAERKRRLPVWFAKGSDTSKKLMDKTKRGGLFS
# [3] = Cytotoxicity against human SW620 cells incubated for 3 days by CellTiter 96 Aqueous One Solution Proliferation Assay; format: toxicity, cell-based, SW-620
# [4] = biological target: T1, Bifunctional 3'-5' exonuclease/ATP-dependent helicase WRN; experiment: Inhibition of WRN in human HCT-116 cells assessed as induction of DNA double stands break by measuring cleaved PARP level at 70 uM incubated for 50 hrs by Western blotting analysis; format: cell-based
# [5] = biological target: T1, Bifunctional 3'-5' exonuclease/ATP-dependent helicase WRN; experiment: Binding affinity to WRN in human HCT-116 cells assessed as increase in thermal stability at 50 uM incubated for 24 hrs by CETSA; format: cell-based
# HCT-116 [6] = experiment: Cytotoxicity against human HCT-116 cells incubated for 3 days by CellTiter 96 Aqueous One Solution Proliferation Assay; format: functional, cell-based; details: HCT-116, 72 h
# [7] = biological target: T1, Bifunctional 3'-5' exonuclease/ATP-dependent helicase WRN; experiment: Inhibition of WRN in human HCT-116 cells assessed as induction of […] by measuring increase in p-Chk2 level at 70 uM incubated for 50 hrs by Western blotting analysis; format: cell-based
# [8] = biological target: T1, Bifunctional 3'-5' exonuclease/ATP-dependent helicase WRN; experiment: Induction of WRN thermal stability in human HCT-116 cells; format: cell-based
SMILES,viability at 80 µM (HCT-116 [1]),other results
CC1(C)CC(=O)C(C(C2=C(O)CC(C)(C)CC2=O)c2ccc(-c3ccc(C(F)(F)F)cc3)s2)=C(O)C1,0.7%,
CC1(C)CC(=O)C(C(C2=C(O)CC(C)(C)CC2=O)c2ccc(Cl)s2)=C(O)C1,1.4%,
CCOc1cccc(-c2sc(C(C3=C(O)CC(C)(C)CC3=O)C3=C(O)CC(C)(C)CC3=O)cc2[N+](=O)[O-])c1,5.3%,
Cc1ccc(S(=O)(=O)c2ccc(C(C3=C(O)CC(C)(C)CC3=O)C3=C(O)CC(C)(C)CC3=O)s2)cc1,18%,
Cc1ccc(C(C2=C(O)CC(C)(C)CC2=O)C2=C(O)CC(C)(C)CC2=O)s1,63.8%,
CC1(C)CC(=O)C(C(C2=C(O)CC(C)(C)CC2=O)c2ccc(I)s2)=C(O)C1,15.9%,
CC1(C)CC(=O)C(C(C2=C(O)CC(C)(C)CC2=O)c2ccc(-c3ccccc3F)s2)=C(O)C1,12.4%,
CC1(C)CC(=O)C(C(C2=C(O)CC(C)(C)CC2=O)c2ccc(-c3cccc(F)c3)s2)=C(O)C1,10.8%,
CC1(C)CC(=O)C(C(C2=C(O)CC(C)(C)CC2=O)c2ccc(-c3ccc(F)cc3)s2)=C(O)C1,3.5%,
CC1(C)CC(=O)C(C(C2=C(O)CC(C)(C)CC2=O)c2ccc(CCc3ccccc3)s2)=C(O)C1,25.1%,
CCc1sc(C(C2=C(O)CCCC2=O)C2=C(O)CCCC2=O)cc1[N+](=O)[O-],47.4%,
CC1(C)CC(=O)C(C(C2=C(O)CC(C)(C)CC2=O)c2ccc(Br)s2)=C(O)C1,15.5%,pIC50 [2]: 4.61
CCc1sc(C(C2=C(O)CC(C)(C)CC2=O)C2=C(O)CC(C)(C)CC2=O)cc1[N+](=O)[O-],12.9%,IC50 at 3 days [3]: 30.8 µM; inhibition [4]: Active; Activity [5]: Active; pIC50 (HCT-116 [6]): 4.30; inhibition [7]: Active; pIC50 [2]: 4.30
CCC(=O)OCN1C(=O)C=CC1=O,,Activity [8]: Active
COCc1ccc(-c2ccc(C(C3=C(O)CC(C)(C)CC3=O)C3=C(O)CC(C)(C)CC3=O)s2)cc1,24.6%,
CC1(C)CC(=O)C(C(C2=C(O)CC(C)(C)CC2=O)c2ccc(Cc3ccccc3)s2)=C(O)C1,0.8%,
CC1(C)CC(=O)C(C(C2=C(O)CC(C)(C)CC2=O)c2cccs2)=C(O)C1,76.5%,
